Here are results for 9 compounds from PubChem BioAssay (NCI).

Values joined by “and” are separate entries in the source; they are usually repeats but may differ in a detail not shown here. Identical values can stand only once.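 How tested: cells in 96-well plates exposed to compound for 48 hours at five concentrations. Abbreviation: GI50, concentration required for 50% inhibition of growth. TGI: total growth inhibition.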

Common to all, as to assay: growth of human tumour cells (NCI), 48 h
Test [1] has as its system SF-295 CNS.
The test system of test [2] is SW-620 colon.
Test [3] has as its system RPMI-8226 leukemia.
For test [4], the system named is ACHN renal.
The subject of test [5] is TK-10 renal.
In test [6] the test system is SR leukemia.
In test [7] the test system is HCT-116 colon.
The subject of test [8] is OVCAR-5 ovarian.
Test [9] deals with UACC-62 melanoma.
The subject of test [10] is MOLT-4 leukemia.

As to `COc1cc2ccc3c4c(OC)cc(OC)c(OC)c4c(=O)n(C)c3c2cc1OC`, the GI50 in test [1] is 0.809 µM; in test [2], 1.05 µM; in test [3], 0.245 µM; in [4] it was 4.88 µM; in [5], greater than 16.7 µM; in test [7], 0.455 µM. Also, the results for the GI50 in [9] and in test [10] were greater than 16.7 µM and 0.591 µM, respectively. Also, the TGI in test [1] was 2.89 µM and > 22.4 µM; in test [2] it was 4.43 µM; in [3], 2.15 µM and 1.65 µM; in test [4], 16.7 µM and > 44.7 µM; in [5], greater than 54.6 µM; in [6] it was 2.97 µM. Moreover, the TGI in test [8] was 23.1 µM; in test [9], greater than 47.3 µM; in test [10] it was 10.2 µM and 3.79 µM.
Consider `Nc1ncnc2c1nc(-c1ccccc1)n2C1OC(CO)C(O)C1O` (stereo not given), for which the TGI in test [1], in [2], in test [3], in [4], in test [5] and in test [6] was greater than 100 µM in each case. In addition, the TGI in test [7], in test [8], in test [9] and in test [10] was greater than 100 µM in each case.
In the case of `CCOC(=O)c1ccc(N(CCOS(C)(=O)=O)CCOS(C)(=O)=O)cc1C`, the GI50 in test [1] was 21.9 µM; in [2], 88.2 µM; in test [3], 22.2 µM; in test [4] it was 9.94 µM; in test [5], 50.7 µM; in test [6], 2.83 µM. For the same compound, the GI50 in test [7] is 33.4 µM; in [8], 38.1 µM; in test [9], 23.8 µM; in test [10], 7.01 µM. In addition, the TGI in [1] was greater than 100 µM; in test [2] it was greater than 100 µM; in test [3] it was greater than 100 µM; in test [4], 42.7 µM; in test [5] it was greater than 100 µM; in [6], greater than 100 µM. Besides, the TGI in [7] was greater than 100 µM; in test [8], 94 µM; in test [9] it was 95.4 µM; in test [10], greater than 100 µM.
For the compound `Nc1ncnc(NC2C=C(CO)C(O)C2O)c1[N+](=O)[O-]` (stereo not given), the TGI in [1] was greater than 100 µM; in [2], 59 µM; in test [3] it was greater than 100 µM; in [4] it was greater than 100 µM; in [5], greater than 100 µM; in test [6], greater than 100 µM. Moreover, the TGI in [7] is 75.4 µM; in [8], greater than 100 µM; in [9], greater than 100 µM; in [10] it was greater than 100 µM.
Take `CN(C)C(=O)/N=c1\ss/c(=N\C(=S)N(C)C)n1-c1ccccc1`: the TGI was greater than 100 µM in test [1]; greater than 100 µM in [2]; greater than 100 µM in test [3]; greater than 100 µM in test [4]; 84.7 µM in test [5]; greater than 100 µM in [6]. In addition, the TGI was 47.1 µM in [7], greater than 100 µM in test [8], greater than 100 µM in test [9] and greater than 82.1 µM in [10]. For the same compound, the values for the GI50 in [3], in [9] and in [10] were 0.291 µM, 1.92 µM and 0.158 µM, respectively.
For the compound `COc1cc(/C=C2\CN(C)C/C(=C\c3cc(OC)c(OC)c(OC)c3)C2=O)cc(OC)c1OC`, the GI50 in [1] was 0.319 µM; in [2], 0.347 µM; in [3], 0.266 µM; in test [4] it was 0.2 µM; in [5], 0.247 µM; in test [6], 0.24 µM. Further, the GI50 in [7] is 0.154 µM; in test [8], 0.357 µM; in test [9] it was 0.186 µM; in test [10] it was 0.323 µM. The TGI came out at 1.12 µM in [1]; 1.42 µM in test [2]; 0.841 µM in test [3]; 0.387 µM in test [4]; 0.771 µM in test [5]; 1.41 µM in test [6]. Further, the TGI in test [7] stood at 0.335 µM; in test [8], 1.17 µM; in test [9], 0.383 µM; in test [10], 4.5 µM.
In the case of `C=C1C(=O)O[C@H]2[C@H]1CC/C(Cn1cc(Cn3ccc4ccccc43)nn1)=C\CC[C@@]1(C)O[C@@H]21`, the GI50 in test [1] is 7.87 µM; in test [2], 1.42 µM; in [3] it was 1.68 µM; in [4] it was 1.18 µM; in test [5], 1.65 µM; in test [6], 0.345 µM. The GI50 was 0.762 µM in [7], 1.59 µM in test [8], 1.44 µM in test [9] and 1.48 µM in test [10]. The TGI is 21.3 µM in test [1]; 3.01 µM in test [2]; 4.7 µM in test [3]; 2.43 µM in test [4]; 3.05 µM in test [5]; 3.71 µM in test [6]. Besides, the TGI in test [7] was found to be 2.15 µM; in [8], 3.21 µM; in test [9] it was 2.89 µM; in test [10] it was 5.11 µM.
As to `Cc1ccccc1NC(=O)C(=O)C(c1cnc2ccc([N+](=O)[O-])cc2n1)[N+](=O)[O-]` (stereo not given), the TGI in test [1], in [2], in test [3], in test [4], in [5] and in [6] was greater than 100 µM each time. For the same compound, the TGI in test [7], in test [8], in test [9] and in test [10] was greater than 100 µM in each case.
For `CN[C@]12CC3(C=CC(=O)C=C3)O[C@@]1(Cc1ccc(OC)cc1)N(C)C(=O)N2`, the GI50 in test [1] was 3.74 µM; in test [2] it was 2.1 µM; in test [3], 1.63 µM; in test [4], 1.67 µM; in test [5] it was 2.48 µM; in test [6], 1.15 µM. For the same compound, the GI50 in [7] was 0.812 µM; in test [8] it was 2.21 µM; in test [9], 1.46 µM; in test [10], 2.8 µM. The TGI came out at 13.6 µM in test [1]; 6.99 µM in test [2]; 3.32 µM in test [3]; 4 µM in [4]; 6.72 µM in test [5]; 20.1 µM in test [6]. Moreover, the TGI amounted to 7.98 µM in [7], 5.59 µM in test [8], 3.34 µM in [9] and 9.88 µM in test [10].
